This passage reports melting point and IC50 results from US8110586B2, “8-aza-bicyclo[3.2.1]octane derivatives and their use as monoamine neurotransmitter re-uptake inhibitors” (Neurosearch A/S, priority 2006, dated 2012).

Series [1] has as its target T1, reuptake of dopamine (DA) in synaptosomes (Rattus norvegicus, UniProt P23977).
T1 construct: in synaptosomes as described in WO 97/16451; from tissue
The series can be described thus: Inhibition of dopamine reuptake in synaptosomes. Format: biochemical. The note with it: 3H-DA, read-out: DA-uptake IC50.

Series [2] concerns the target T2, reuptake of serotonine (5-HT) in synaptosomes (Rattus norvegicus, UniProt P31652).
T2 construct: in synaptosomes as described in WO 97/16451; from tissue
The series can be described thus: Inhibition of serotonin reuptake in synaptosomes. Type of series: biochemical. The procedure:
A number of compounds were tested for their ability to inhibit the reuptake of the monoamine neurotransmitters dopamine (DA) noradrenaline (NA) and serotonine (5-HT) in synaptosomes as described in WO 97/16451.
The test values are given as IC50 (the concentration (μM) of the test substance which inhibits the specific binding of ^3H-DA, ^3H-NA, or ^3H-5-HT by 50%).

Where a name gives a salt, the structure may show the parent alone.

T2 sequence (P31652 whole entry): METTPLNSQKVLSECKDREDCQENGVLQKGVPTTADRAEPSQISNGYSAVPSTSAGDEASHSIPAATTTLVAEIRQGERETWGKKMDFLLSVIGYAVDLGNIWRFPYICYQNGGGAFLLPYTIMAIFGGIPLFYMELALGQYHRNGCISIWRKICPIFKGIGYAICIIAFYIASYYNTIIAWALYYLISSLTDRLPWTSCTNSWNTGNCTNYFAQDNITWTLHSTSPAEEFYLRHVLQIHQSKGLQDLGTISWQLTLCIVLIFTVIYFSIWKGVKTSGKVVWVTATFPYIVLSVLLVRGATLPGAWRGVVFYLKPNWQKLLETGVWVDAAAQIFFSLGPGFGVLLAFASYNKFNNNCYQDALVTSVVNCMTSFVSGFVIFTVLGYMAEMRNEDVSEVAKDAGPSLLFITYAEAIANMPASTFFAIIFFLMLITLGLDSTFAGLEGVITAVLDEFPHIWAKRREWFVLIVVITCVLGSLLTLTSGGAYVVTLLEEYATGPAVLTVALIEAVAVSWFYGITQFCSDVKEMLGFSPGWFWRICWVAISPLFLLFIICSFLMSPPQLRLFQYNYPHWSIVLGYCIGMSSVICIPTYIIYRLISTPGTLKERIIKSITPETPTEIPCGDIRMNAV
T1 sequence (P23977 whole entry): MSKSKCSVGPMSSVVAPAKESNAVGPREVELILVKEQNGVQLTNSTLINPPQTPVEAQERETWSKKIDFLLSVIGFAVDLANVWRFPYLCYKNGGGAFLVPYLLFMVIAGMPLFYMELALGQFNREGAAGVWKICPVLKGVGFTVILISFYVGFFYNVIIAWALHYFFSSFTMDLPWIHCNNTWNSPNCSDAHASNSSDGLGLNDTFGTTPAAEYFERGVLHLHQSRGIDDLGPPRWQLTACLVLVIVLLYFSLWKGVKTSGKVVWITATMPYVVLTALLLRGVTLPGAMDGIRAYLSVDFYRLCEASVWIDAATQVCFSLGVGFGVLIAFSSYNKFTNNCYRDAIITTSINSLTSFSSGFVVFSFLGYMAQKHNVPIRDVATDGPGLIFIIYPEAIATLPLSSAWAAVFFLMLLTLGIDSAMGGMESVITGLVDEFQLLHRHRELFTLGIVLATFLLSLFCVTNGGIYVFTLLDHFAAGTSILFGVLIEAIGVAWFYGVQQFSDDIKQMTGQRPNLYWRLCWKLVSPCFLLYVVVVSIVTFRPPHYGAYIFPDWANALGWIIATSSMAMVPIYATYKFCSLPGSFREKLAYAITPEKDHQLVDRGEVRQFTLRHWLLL

For orientation: melting point means the temperature, or range, at which the solid turns liquid. Compound `COc1ccc2cc(OC3CC4CCC(C3)N4)ccc2c1` (stereo not drawn) (as salt: hydrochloric acid salt) [First compound of Example A, exo-3-(6-Methoxy-naphthalen-2-yloxy)-8-aza-bicyclo[3.2.1]octane] showed a melting point of 237 to 239 °C. `COc1ccc2ccc(OC3CC4CCC(C3)N4)cc2c1` (stereo not drawn) (as salt: hydrochloric acid salt) [Last compound of Example A, exo-3-(7-Methoxy-naphthalen-2-yloxy)-8-aza-bicyclo[3.2.1]octane] returned a melting point of 225 °C. For orientation: IC50 means the concentration needed to halve the response being measured. For the compound `COc1ccc2cc(OC3CC4CCC(C3)N4)ccc2c1` (stereo not drawn) [First compound of Example A, exo-3-(6-Methoxy-naphthalen-2-yloxy)-8-aza-bicyclo[3.2.1]octane], the IC50 turned out to be 420 nM in series [1] and 26 nM in series [2]. The matching figures for `COc1ccc2ccc(OC3CC4CCC(C3)N4)cc2c1` (stereo not drawn) [Last compound of Example A, exo-3-(7-Methoxy-naphthalen-2-yloxy)-8-aza-bicyclo[3.2.1]octane]: 1400 nM and 0.42 nM.
